Measurements taken from ChEMBL document CHEMBL5625233, “Exploring positions 6 and 7 of a quinazoline-based scaffold leads to changes in selectivity and potency towards RIPK2/3 kinases” (Eur J Med Chem, 2023).
Calls of active or inactive are those of the source. The calls are words filed in the database; no cut-off is given here.

How the values were obtained:
[1] = target: T1, Receptor-interacting serine/threonine-protein kinase 2 (Homo sapiens, UniProt O43353); test: Inhibition of RIPK2-mediated NF-kappaB signalling in MDP-treated human THP-1 cells upto 10 uM preincubated for 30 mins followed by MDP addition measured after 24 hrs by luminescence based assay; format: cell-based
[2] = target: T1, Receptor-interacting serine/threonine-protein kinase 2; test: Inhibition of RIPK2-mediated NF-kappaB signalling in C14-TriLAN-Gly-treated human THP-1 cells upto 10 uM preincubated for 30 mins followed by C14-TriLAN-Gly addition measured after 24 hrs by luminescence based assay; format: cell-based
[3] = target: T2, Receptor-interacting serine/threonine-protein kinase 3 (Homo sapiens, UniProt Q9Y572); test: Inhibition of N-terminal polyHis-tagged human RIPK3 (1 to 307 residues) expressed in Sf9 cells using MBP as substrate upto 10 uM preincubated for 15 mins followed by ATP addition measured after 90 mins by ADP-Glo assay; conditions: time 105.0 min
Target sequence in this assay (Q9Y572 whole entry, looked up, the tested form may be a part): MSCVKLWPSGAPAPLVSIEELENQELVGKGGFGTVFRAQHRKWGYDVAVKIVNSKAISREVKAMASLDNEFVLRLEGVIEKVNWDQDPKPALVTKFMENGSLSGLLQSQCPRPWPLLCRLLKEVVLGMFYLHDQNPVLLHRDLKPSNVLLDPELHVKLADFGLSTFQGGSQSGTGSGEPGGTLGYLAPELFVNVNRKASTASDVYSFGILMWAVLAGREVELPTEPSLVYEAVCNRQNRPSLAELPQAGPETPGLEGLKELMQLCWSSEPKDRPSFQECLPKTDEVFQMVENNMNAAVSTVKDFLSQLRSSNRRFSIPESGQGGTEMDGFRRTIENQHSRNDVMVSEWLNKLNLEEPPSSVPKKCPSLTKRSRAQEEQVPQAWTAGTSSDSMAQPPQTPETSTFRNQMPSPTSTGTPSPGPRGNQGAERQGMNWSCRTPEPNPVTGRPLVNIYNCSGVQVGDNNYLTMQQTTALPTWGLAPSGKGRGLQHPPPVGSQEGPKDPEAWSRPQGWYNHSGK

[4] = target: T3, Receptor-interacting serine/threonine-protein kinase 1 (Homo sapiens, UniProt Q13546); test: Inhibition of N-terminal polyHis-tagged human RIPK1 (1 to 321 residues) expressed in Sf9 cells using MBP as substrate preincubated for 15 mins followed by ATP addition measured after 90 mins by ADP-Glo assay
T3 sequence (Q13546 whole entry): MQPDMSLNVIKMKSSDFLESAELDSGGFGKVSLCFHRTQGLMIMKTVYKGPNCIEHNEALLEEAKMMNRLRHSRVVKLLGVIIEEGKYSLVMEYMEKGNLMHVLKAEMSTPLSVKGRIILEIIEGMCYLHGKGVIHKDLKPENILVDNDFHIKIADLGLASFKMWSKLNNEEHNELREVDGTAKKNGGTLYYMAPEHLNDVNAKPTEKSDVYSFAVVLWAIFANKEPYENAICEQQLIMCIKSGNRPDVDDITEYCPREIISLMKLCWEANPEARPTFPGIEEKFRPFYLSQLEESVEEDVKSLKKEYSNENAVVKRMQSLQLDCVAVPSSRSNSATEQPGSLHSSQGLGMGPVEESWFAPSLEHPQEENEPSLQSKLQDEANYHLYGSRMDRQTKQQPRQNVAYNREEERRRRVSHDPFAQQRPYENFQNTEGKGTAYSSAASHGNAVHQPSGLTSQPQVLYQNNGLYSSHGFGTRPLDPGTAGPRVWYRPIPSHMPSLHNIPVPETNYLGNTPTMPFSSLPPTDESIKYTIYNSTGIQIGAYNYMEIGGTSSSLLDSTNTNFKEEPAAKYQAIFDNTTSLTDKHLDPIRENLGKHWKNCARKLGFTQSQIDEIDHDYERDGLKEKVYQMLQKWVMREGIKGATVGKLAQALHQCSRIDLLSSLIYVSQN

[5] = target: T4, Receptor-interacting serine/threonine-protein kinase 4 (Homo sapiens, UniProt P57078); test: Inhibition of N-terminal polyHis-tagged human RIPK4 (1 to 321 residues) expressed in Sf9 cells using MBP as substrate preincubated for 15 mins followed by ATP addition measured after 90 mins by ADP-Glo assay
T4 sequence (P57078 whole entry): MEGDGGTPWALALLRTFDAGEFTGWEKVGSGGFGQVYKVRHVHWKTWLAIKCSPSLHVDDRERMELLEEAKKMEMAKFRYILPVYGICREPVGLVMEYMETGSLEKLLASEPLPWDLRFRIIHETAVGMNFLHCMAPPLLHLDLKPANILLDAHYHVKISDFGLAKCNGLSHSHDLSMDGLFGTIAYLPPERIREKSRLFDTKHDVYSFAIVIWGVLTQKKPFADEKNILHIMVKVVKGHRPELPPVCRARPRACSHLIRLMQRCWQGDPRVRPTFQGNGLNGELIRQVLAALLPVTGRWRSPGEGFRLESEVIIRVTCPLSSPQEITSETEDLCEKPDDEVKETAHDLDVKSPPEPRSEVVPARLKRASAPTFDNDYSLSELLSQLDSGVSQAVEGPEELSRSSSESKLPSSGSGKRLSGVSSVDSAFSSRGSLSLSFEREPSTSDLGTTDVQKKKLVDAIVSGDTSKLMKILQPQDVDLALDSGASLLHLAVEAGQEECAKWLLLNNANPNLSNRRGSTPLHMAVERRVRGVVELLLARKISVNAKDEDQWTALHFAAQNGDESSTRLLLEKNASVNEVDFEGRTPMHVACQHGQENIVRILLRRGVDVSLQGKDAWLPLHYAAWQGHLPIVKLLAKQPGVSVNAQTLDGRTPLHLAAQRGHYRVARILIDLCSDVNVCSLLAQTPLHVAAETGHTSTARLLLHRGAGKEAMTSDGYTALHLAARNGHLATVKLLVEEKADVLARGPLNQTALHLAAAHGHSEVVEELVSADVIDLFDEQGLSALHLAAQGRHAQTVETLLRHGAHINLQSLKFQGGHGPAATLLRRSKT

[6] = target: T1, Receptor-interacting serine/threonine-protein kinase 2; test: Inhibition of RIPK2-mediated NF-kappaB signalling in MDP-treated human THP-1 cells preincubated for 30 mins followed by MDP addition measured after 24 hrs by luminescence based assay; format: cell-based
[7] = target: T1, Receptor-interacting serine/threonine-protein kinase 2; test: Inhibition of RIPK2-mediated NF-kappaB signalling in C14-TriLAN-Gly-treated human THP-1 cells preincubated for 30 mins followed by C14-TriLAN-Gly addition measured after 24 hrs by luminescence based assay; format: cell-based
[8] = target: T1, Receptor-interacting serine/threonine-protein kinase 2; test: Inhibition of N-terminal polyHis-tagged human RIPK2 (8 to 310 residues) expressed in Sf9 cells using MBP as substrate preincubated for 15 mins followed by ATP addition measured after 90 mins by ADP-Glo assay
[9] = target: T2, Receptor-interacting serine/threonine-protein kinase 3; test: Inhibition of N-terminal polyHis-tagged human RIPK3 (1 to 307 residues) expressed in Sf9 cells using MBP as substrate preincubated for 15 mins followed by ATP addition measured after 90 mins by ADP-Glo assay
Target sequence in this assay (Q9Y572 whole entry, the tested form may be a part): as the sequence (Q9Y572 whole entry, looked up, the tested form may be a part) above

T1 sequence (O43353 whole entry): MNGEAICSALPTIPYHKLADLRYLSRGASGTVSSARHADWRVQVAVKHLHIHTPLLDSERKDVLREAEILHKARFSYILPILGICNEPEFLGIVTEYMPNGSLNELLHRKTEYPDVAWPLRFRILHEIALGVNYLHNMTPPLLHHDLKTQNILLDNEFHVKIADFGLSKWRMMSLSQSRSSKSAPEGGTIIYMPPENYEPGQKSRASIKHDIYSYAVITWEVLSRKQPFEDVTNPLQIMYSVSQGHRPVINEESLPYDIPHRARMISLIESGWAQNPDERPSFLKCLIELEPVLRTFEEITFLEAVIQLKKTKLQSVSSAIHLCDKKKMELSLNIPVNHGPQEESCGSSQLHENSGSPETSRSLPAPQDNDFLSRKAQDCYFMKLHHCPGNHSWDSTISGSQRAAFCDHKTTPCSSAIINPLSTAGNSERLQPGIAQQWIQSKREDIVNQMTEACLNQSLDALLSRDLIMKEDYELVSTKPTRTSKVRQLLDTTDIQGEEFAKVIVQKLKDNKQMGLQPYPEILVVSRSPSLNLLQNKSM

Row | Structure (SMILES) | IC50 [1] | IC50 [2] | inhibition [3] | IC50 [4] [nM] | IC50 [5] [nM] | IC50 [6] [nM] | IC50 [7] [nM] | IC50 [8] [nM] | IC50 [9] [nM]
1 | Clc1cc2ncnc(Nc3ccc4scnc4c3)c2cc1-c1ccccc1 | Not Active | Not Active | inactive | > 50000 | > 50000 | – | – | – | –
2 | Cc1ncc(-c2ccc3ncnc(Nc4ccc5scnc5c4)c3c2)n1C | – | – | inactive | > 50000 | > 50000 | 240 | 143 | 9 | –
3 | Cc1cscc1-c1ccc2ncnc(Nc3ccc4scnc4c3)c2c1 | – | – | – | > 50000 | > 50000 | 1530 | 4430 | 29 | 1900
4 | Cn1cccc1-c1cc2c(Nc3ccc4scnc4c3)ncnc2cc1Cl | Not Active | Not Active | inactive | > 50000 | > 50000 | – | – | 8 | –
5 | Cc1csc(-c2ccc3ncnc(Nc4ccc5scnc5c4)c3c2)n1 | Not Active | – | – | > 50000 | > 50000 | – | 2750 | 5 | 382
6 | COc1cccc(-c2cc3c(Nc4ccc5scnc5c4)ncnc3cc2Cl)n1 | Not Active | Not Active | inactive | > 50000 | > 50000 | – | – | 3900 | –
7 | Cc1csc(-c2cc3c(Nc4ccc5scnc5c4)ncnc3cc2Cl)n1 | Not Active | Not Active | inactive | > 50000 | > 50000 | – | – | – | –
8 | Cc1ccsc1-c1ccc2ncnc(Nc3ccc4scnc4c3)c2c1 | – | – | – | > 50000 | > 50000 | 362 | 438 | 6 | 388
9 | Cn1nccc1-c1cc2c(Nc3ccc4scnc4c3)ncnc2cc1Cl | – | – | – | > 50000 | > 50000 | 318 | 313 | 18 | 1600
10 | c1ccc(-c2ccc3ncnc(Nc4ccc5scnc5c4)c3c2)cc1 | – | – | – | > 50000 | > 50000 | 2130 | 4360 | 18 | 3600
11 | COc1cccc(-c2ccc3ncnc(Nc4ccc5scnc5c4)c3c2)n1 | Not Active | Not Active | inactive | > 50000 | > 50000 | – | – | 49 | –
12 | c1nc(Nc2ccc3scnc3c2)c2cc(-c3cc[nH]n3)ccc2n1 | – | – | – | > 50000 | > 50000 | 68 | 114 | 6 | 2100
13 | Cc1nc(-c2ccc3ncnc(Nc4ccc5scnc5c4)c3c2)sc1C | Not Active | Not Active | inactive | > 50000 | > 50000 | – | – | 14 | –
14 | Clc1cc2ncnc(Nc3ccc4scnc4c3)c2cc1-c1cc[nH]n1 | Not Active | – | inactive | > 50000 | > 50000 | – | 155 | 10 | –
15 | Cc1ncc(-c2cc3c(Nc4ccc5scnc5c4)ncnc3cc2Cl)s1 | – | – | inactive | > 50000 | > 50000 | 103 | 156 | 5 | –
